Measured values published in US9643971B2 (GALLEON PHARMACEUTICALS, INC., priority 2013, dated 2017).
Entries after “also recorded” stand apart in the source; their conditions may differ. Counter-ions that a name gives are not always drawn.

How the values were obtained:
[1] = system: rats chronically treated with morphine; experiment: Apnea, ventilation and sleep structure in rats chronically treated with morphine (whole-body plethysmography); assay type: in vivo, Zucker rats; conditions: oral gavage, hydrochloride
Source text: The objective of this study was to quantify the effects of selected compounds of this invention on apnea, ventilation and sleep structure in a rat model. The study consisted of two treatment conditions: (1) chronic morphine and test compound administered orally, and (2) chronic morphine and oral vehicle.
Adult male lean Zucker rats were anesthetized for electroencephalogram (EEG) and electromyogram (EMG) telemeter implantation. At least one week was permitted post-surgery before animals were used further. Morphine sulfate was added to the drinking water of singly housed rats beginning with 0.1 mg/ml morphine and increasing the concentration in increments, so that a final concentration of 0.6 mg/ml was achieved within 2 weeks. All respiratory measurements were made while animals were unrestrained in whole-body plethysmography chambers to permit animals to sleep and move freely. To avoid eliciting withdrawal, morphine water was continuously available during each plethysmography experiment. Minute volume and the number of central sleep apneas (CSA) were measured during all treatment conditions. A period of at least 1 to 1.5 h was permitted for animals to acclimate to the chamber before data collection began. The biopotential telemeters and their receivers were placed directly under the plethysmographic chambers and were used to continuously to capture EEG, EMG, and body temperature signals. Only data collected between the hours of 10 am to 4:30 pm were used in the final analysis to control for the effects of circadian rhythm on breathing.
Test compound in vehicle or an equivalent volume of vehicle was administered via an oral gavage tube at 12 pm. Data collected between 10 am and 12 pm represented baseline (pre-drug) conditions. Data collected between […] represented post-drug conditions. Analyses of the EEG and EMG waveforms for the purpose of staging sleep-wake behavior in rats as awake, NREM sleep, and REM sleep were based on previous sleep studies involving rodents. Central apneas were defined as a respiratory cycle period that was more than or equal to twice the average cycle period during baseline recordings. Percent time in each sleep-wake state, minute volume, and central sleep apnea counts were compared between treatment groups using a two-way ANOVA (factors: drug treatment and time). Breathing data during wakefulness was not analyzed because movement prevents measurement of accurate volumes when using whole-body plethysmography. When differences were detected with ANOVA, Student-Neuman-Keuls post hoc tests were run for all main effects and interactions. Differences were considered significant when p<0.05. Values are expressed as means±SE.

anesthetized rat = experiment: Anesthetized rat spirometry screening assay; assay type: in vivo; conditions: 2 minute AUC of minute volume increase vs. comparator N-[2,6-di-(n-propylamino)-[1,3]pyrimidin-4-yl]-N,O-dimethyl-hydroxylamine
Source text: Effect of Compounds of the Invention on Respiratory Rate (RR), Tidal Volume (VT), and the Product Minute Volume Using an Anesthetized Rat Spirometry Screening Assay
Anesthetized rats provide a quick method of screening compounds for respiratory and cardiovascular activity. In contrast to the conscious rat model, this model offers an experimental set up with less variation in the baseline cardiovascular and respiratory measures. Compounds screened in this assay may be examined in a conscious rat model.
Rats were initially anesthetized with 3% isoflurane (inhaled) and femoral artery and vein cannulas were surgically inserted. Once cannulated, the rats were transitioned to urethane anesthesia (1.5 g/kg; i.v.) and a tracheal cut-down was performed. After placing the tracheal cannula, it was connected to a pneumotachometer to record respiratory airflow from which respiratory rate (RR), tidal volume (VT), and their product minute volume were derived. After the surgical preparation was complete, animals were allowed to stabilize for 30 minutes while respiratory rate, tidal volume, minute volume, blood pressure and heart rate were recorded continuously. Arterial blood gases (ABG) were obtained from arterial blood collected from the femoral artery. ABG measurements were taken before and 6 minutes after vehicle and each dose of compound administered. Compounds being screened were administered via bolus injections through the venous cannula followed by a saline flush (total time of administration is approximately 30 seconds), and the animal was monitored for at least 6 minutes for changes in cardiovascular efforts. Compounds were prepared in formulations identified to ensure optimal solubility. As such, vehicle controls were matched for the formulation of each compound tested. Dosing of the compound being screened was 0.1 and 0.3 mg/kg. The next dose was not administered until all cardiovascular and respiratory measures had returned to baseline levels. The positive control compounds used were N-[4,6-di-(n-propylamino)-[1,3,5]triazin-2-yl]-N,O-dimethyl-hydroxylamine or N-[2,6-di-(n-propylamino)-[1,3]pyrimidin-4-yl]-N,O-dimethyl-hydroxylamine (both administered at the end of each screening experiment (0.3 mg/kg dose) to validate the experiment and also to serve as a measure with which the compound being screened could be compared.
Data were analyzed by collecting cardiovascular and respiratory data in 30 second averages (BINs). Data were plotted 2 minutes before challenge and then 6 minutes after challenge.

in vitro = conditions: male, rat, microsomes
[2] = In vitro metabolic stability in human liver microsomes (HLM); conditions: both, human, liver microsomes
[3] = versus treatment with a vehicle

half-life at 5 μM (in vitro) [h] | half-life at 5 μM [2] [h] | Compound | apnea frequency [1, 3] | number of apneas per hr expressed as a percent change from baseline (pre-drug) [1, 3] | minute volume compared to a vehicle-treated group [1] | number of apneas per hr versus vehicle [1] | ventilation per unit time compared to vehicle [1] | AUC MV Inc (2 min) (ratio vs. std*) (anesthetized rat) [ratio vs. std]
– | – | C=CCNc1nc(NC)nc2c(NCC=C)nc(NC)nc12.Cl [Compound 145a, N^4,N^8-Diallyl-N^2,N^6-dimethyl-pyrimido[5,4-d]pyrimidine-2,4,6,8-tetraamine hydrochloride] | reduced; also recorded: decreased | reduced; also recorded: decreased | did not cause an increase; also recorded: do not cause increases | reduced; also recorded: decreased | did not cause an increase; also recorded: do not cause an increase | 0.88
0.667 | 1.37 | CCCNc1nc(NC)c2nc(Cl)nc(NC)c2n1 [Compound 54, 6-Chloro-N^4,N^8-dimethyl-N^2-n-propyl-pyrimido[5,4-d]pyrimidine-2,4,8-triamine] | – | – | – | – | – | 0.09
1.77 | 1.83 | CCCNc1nc(N2CCC(OC)CC2)nc2c(NCCC)nc(NC)nc12 [Compound 47a, N^2-Methyl-N^4,N^8-di-n-propyl-6-(4-methoxy-piperidin-1-yl)-pyrimido[5,4-d]pyrimidine-2,4,8-triamine] | – | – | – | – | – | 0.00
2.7 | 7.7 | CCCNc1nc(NC(C)C)nc2c(NCCC)nc(NC(C)C)nc12.Cl [Compound 10a, N^2,N^6-Di-i-propyl-N^4,N^8-di-n-propyl-pyrimido[5,4-d]pyrimidine-2,4,6,8-tetraamine hydrochloride] | – | – | – | – | – | 0.07
3.4 | 5.7 | C#CCNc1nc(NC)nc2c(NCCC)nc(NC)nc12.Cl [Compound 13a, N^2,N^6-Dimethyl-N^4-n-propyl-N^8-prop-2-ynyl-pyrimido[5,4-d]pyrimidine-2,4,6,8-tetraamine hydrochloride] | – | – | – | – | – | 0.56
1.57 | 1.32 | CCCNc1nc(NCc2ccc(F)cc2)nc2c(NCCC)nc(NC)nc12 [Compound 53a, N^2-(4-Fluorobenzyl)-N^6-methyl-N^4,N^8-di-n-propyl-pyrimido[5,4-d]pyrimidine-2,4,6,8-tetraamine] | – | – | – | – | – | 0.06
0.567 | 1.2 | CCCCc1nc(NCCC)c2nc(NC)nc(NCCC)c2n1 [Compound 118a, 6-n-Butyl-N^2-methyl-N^4,N^8-di-n-propyl-pyrimido[5,4-d]pyrimidine-2,4,8-triamine] | – | – | – | – | – | 0.05
1.27 | 2.25 | CCCNc1nc(NCCOC(C)C)nc2c(NCCC)nc(NC)nc12 [Compound 37a, N^2-(2-Isopropoxy-ethyl)-N^6-methyl-N^4,N^8-di-n-propyl-pyrimido[5,4-d]pyrimidine-2,4,6,8-tetraamine] | – | – | – | – | – | 1.23
1.77 | 1.83 | CCCNc1nc(N(C)OC)nc2c(NCCC)nc(N(C)OC)nc12 [Compound 19a, N^2,N^6-Bis-(N-Methoxy(N-methyl)amino)-N^4,N^8-bis-n-propylamino-pyrimido[5,4-d]pyrimidine hydrochloride] | – | – | – | – | – | 0.00
1.77 | 1.92 | CCCNc1nc(NCCO)nc2c(NCCC)nc(NC)nc12 [Compound 33a, 2-(6-Methylamino-4,8-bis-n-propylamino-pyrimido[5,4-d]pyrimidin-2-yl-amino)-ethanol] | – | – | – | – | – | 0.29
1.15 | 1.63 | CCCNc1nc(N2CCCCC2)nc2c(NCCC)nc(NC)nc12 [Compound 43a, N^2-Methyl-N^4,N^8-di-n-propyl-6-(piperidin-1-yl)-pyrimido[5,4-d]pyrimidine-2,4,8-triamine] | – | – | – | – | – | 0.20
5.52 | > 8.33 | CCCCNc1nc(NCCC)c2nc(NCCCC)nc(NCCC)c2n1.Cl [Compound 8a, N^2,N^6-Di-n-butyl-N^4,N^8-di-n-propyl-pyrimido[5,4-d]pyrimidine-2,4,6,8-tetraamine hydrochloride] | – | – | – | – | – | 0.14
4.57 | 3.3 | CCNc1nc(NC)c2nc(NCC)nc(NC)c2n1.Cl [Compound 81a, N^2,N^6-Diethyl-N^4,N^8-dimethyl-pyrimido[5,4-d]pyrimidine-2,4,6,8-tetraamine hydrochloride] | – | – | – | – | – | 0.00
5.58 | 4.15 | CCCCNc1nc(NC)c2nc(NCCCC)nc(NC)c2n1.Cl [Compound 83a, N^2,N^6-Di-n-butyl-N^4,N^8-dimethyl-pyrimido[5,4-d]pyrimidine-2,4,6,8-tetraamine hydrochloride] | – | – | – | – | – | 1.05
2.7 | 1.98 | CCCNc1nc(N(C)OC)nc2c(NCCC)nc(NC)nc12.Cl [Compound 24a, O,N-Dimethyl-N-(6-methylamino-4,8-bis-n-propylamino-pyrimido[5,4-d]pyrimidin-2-yl)-hydroxylamine hydrochloride] | – | – | – | – | – | 0.43
0.233 | 1.35 | CNc1nc(N(C)NC)nc2c(NC)nc(N(C)C)nc12 [Compound 93a, 6-(N,N′-Dimethyl-hydrazino)-N^2,N^2,N^4,N^8-tetramethyl-pyrimido[5,4-d]pyrimidine-2,4,8-triamine] | – | – | – | – | – | 0.03

Compound | half-life at 5 μM (in vitro) [h] | half-life at 5 μM [2] [h] | apnea frequency [1, 3] | number of apneas per hr expressed as a percent change from baseline (pre-drug) [1, 3] | minute volume compared to a vehicle-treated group [1] | number of apneas per hr versus vehicle [1] | ventilation per unit time compared to vehicle [1] | AUC MV Inc (2 min) (ratio vs. std*) (anesthetized rat) [ratio vs. std]
CCCNc1nc(N(C)C)nc2c(NCCC)nc(NC)nc12.Cl [Compound 29a, N^2,N^2,N^6-Trimethyl-N^4,N^8-di-n-propyl-pyrimido[5,4-d]pyrimidine-2,4,6,8-tetraamine hydrochloride] | 0.733 | 1.57 | – | – | – | – | – | 0.95
